Measurements: ChEMBL document CHEMBL4229536, “In vitro and in vivo pharmacokinetic and pharmacodynamic study of MBRI-001, a deuterium-substituted plinabulin derivative as a potent anti-cancer agent” (Bioorg Med Chem, 2018)

What was measured:
[1] = Drug uptake in Wistar rat kidney at 6 mg/kg, iv measured after 8 hrs; assay type: ADME, organism-based; details: in vivo
Mus musculus [2] = assay: Toxicity in nude mouse xenografted with human NCI-H460 cells assessed as body weight at 9 mg/kg, iv administered once in every 2 days for 14 consecutive days (reference value: 20.6 +/- 1.5 g); assay type: organism-based; details: in vivo, 48 h
[3] = Drug excretion in Wistar rat urine at 4 mg/kg, iv measured after 48 hrs; assay type: ADME, organism-based; details: read-out: Drug excretion
NCI-H460 = assay: Antitumor activity against human NCI-H460 cells xenografted in nude mouse assessed as inhibition of tumor volume at 9 mg/kg, iv administered once in every 2 days for 14 consecutive days relative to control; assay type: functional; details: 48 h
[4] = Drug uptake in Wistar rat small intestine at 6 mg/kg, iv measured after 8 hrs; assay type: ADME, organism-based; details: in vivo
[5] = Drug uptake in Wistar rat small intestine at 6 mg/kg, iv measured after 12 hrs; assay type: ADME, organism-based; details: in vivo
[6] = Drug excretion in Wistar rat feces at 4 mg/kg, iv measured after 24 hrs; assay type: ADME, organism-based; details: faeces, read-out: Drug excretion
[7] = Apparent volume of distribution in Wistar rat at 4 mg/kg, iv; assay type: ADME, organism-based; details: in vivo, read-out: Vz
Mus musculus [8] = assay: Toxicity in Balb/c mouse assessed as decrease in body weight at 10 to 15 mg/kg, iv administered three times in a day every 2 days for 15 consecutive days; assay type: organism-based; details: in vivo, 48 h
[9] = Drug excretion in Wistar rat feces at 4 mg/kg, iv measured after 72 hrs; assay type: ADME, organism-based; details: faeces, read-out: Drug excretion
[10] = Drug excretion in Wistar rat feces at 4 mg/kg, iv measured after 12 hrs; assay type: ADME, organism-based; details: faeces, read-out: Drug excretion
[11] = Clearance in rat liver microsomes at 50 uM in presence of NADPH by LC-MS/MS analysis; assay type: ADME, microsome; details: read-out: CLH
[12] = Drug uptake in Wistar rat large intestine at 6 mg/kg, iv measured after 8 hrs; assay type: ADME, organism-based; details: in vivo
Mus musculus [13] = assay: Toxicity in nude mouse xenografted with human NCI-H460 cells assessed as body weight at 3 mg/kg, iv administered once in every 2 days for 14 consecutive days cotreated with 25 mg/kg gefitinib once daily for 14 consecutive days (reference value: 20.6 +/- 1.5 g); assay type: organism-based; details: in vivo, 48 h
[14] = AUClast in Wistar rat at 8 mg/kg, iv; assay type: ADME, organism-based; parameters: dose 8 mg/kg, time 0 - last, route intravenous; details: in vivo
[15] = Drug uptake in Wistar rat small intestine at 6 mg/kg, iv measured after 4 hrs; assay type: ADME, organism-based; details: in vivo
[16] = Drug uptake in Wistar rat heart at 6 mg/kg, iv measured after 12 hrs; assay type: ADME, organism-based; details: in vivo
[17] = Drug uptake in Wistar rat large intestine at 6 mg/kg, iv measured after 0.5 hrs; assay type: ADME, organism-based; details: in vivo
[18] = Drug uptake in Wistar rat liver at 6 mg/kg, iv measured after 4 hrs; assay type: ADME, organism-based; details: in vivo
Mus musculus [19] = assay: Toxicity in nude mouse xenografted with human NCI-H460 cells assessed as body weight at 6 mg/kg, iv administered once in every 2 days for 14 consecutive days (reference value: 20.6 +/- 1.5 g); assay type: organism-based; details: in vivo, 48 h
[20] = Drug excretion in Wistar rat urine at 4 mg/kg, iv measured after 0.5 hrs; assay type: ADME, organism-based; details: read-out: Drug excretion
[21] = Drug uptake in Wistar rat brain at 6 mg/kg, iv measured after 4 hrs; assay type: ADME, organism-based; details: in vivo
[22] = Stability in rat plasma at 1 uM after 10 mins by LC-MS/MS analysis; assay type: ADME, cell-free; details: read-out: Stability
[23] = Drug uptake in Wistar rat kidney at 6 mg/kg, iv measured after 1 hr; assay type: ADME, organism-based; details: in vivo
[24] = Drug uptake in Wistar rat small intestine at 6 mg/kg, iv measured after 0.5 hrs; assay type: ADME, organism-based; details: in vivo
[25] = Drug uptake in Wistar rat large intestine at 6 mg/kg, iv measured after 12 hrs; assay type: ADME, organism-based; details: in vivo
Mus musculus [26] = assay: Toxicity in nude mouse xenografted with human NCI-H460 cells assessed as body weight at 3 mg/kg, iv administered once in every 2 days for 14 consecutive days (reference value: 20.6 +/- 1.5 g); assay type: organism-based; details: in vivo, 48 h
[27] = Drug excretion in Wistar rat urine at 4 mg/kg, iv measured after 72 hrs; assay type: ADME, organism-based; details: read-out: Drug excretion
[28] = Drug uptake in Wistar rat brain at 6 mg/kg, iv measured after 12 hrs; assay type: ADME, organism-based; details: in vivo
Mus musculus [29] = assay: Toxicity in nude mouse xenografted with human NCI-H460 cells assessed as body weight at 6 mg/kg, iv administered once in every 2 days for 14 consecutive days cotreated with 50 mg/kg gefitinib once daily for 14 consecutive days (reference value: 20.6 +/- 1.5 g); assay type: organism-based; details: in vivo, 48 h
[30] = Drug excretion in Wistar rat urine at 4 mg/kg, iv measured after 4 hrs; assay type: ADME, organism-based; details: read-out: Drug excretion
[31] = Drug uptake in Wistar rat spleen at 6 mg/kg, iv measured after 1 hr; assay type: ADME, organism-based; details: in vivo

`[2H]/C(c1nc[nH]c1C(C)(C)C)=c1/[nH]c(=O)/c(=C/c2ccccc2)[nH]c1=O` showed a Drug uptake [1] of 636.5 ng/mL/g, an Activity (Mus musculus [2]) of 19.9 g and a dose excreted at 48 h [3] of 0.26%. For the same compound, the inhibition in vivo at 9 mg/kg (NCI-H460) was 68.2%, the Drug uptake [4] was 160 ng/mL/g and the Drug uptake [5] was 36.1 ng/mL/g. The dose excreted at 24 h [6] was 5.65%, the Vd [7] was 16.4 L/kg and the Activity (Mus musculus [8]) was “Non-Toxic”. It also gave a dose excreted at 72 h [9] of 6.23%, a dose excreted at 12 h [10] of 0.12% and a microsomal CLint at 50 µM [11] of 16.3 µL/min/mg. The Drug uptake [12] was 1188.5 ng/mL/g, the Activity (Mus musculus [13]) was 19.8 g and the AUC(0-t) [14] was 5780 ng·h/mL. It also gave a Drug uptake [15] of 336.9 ng/mL/g, a Drug uptake [16] of 54.7 ng/mL/g and a Drug uptake [17] of 1936.4 ng/mL/g. The Drug uptake [18] was 4220 ng/mL/g, the Activity (Mus musculus [19]) was 21.1 g and the dose excreted at 0.5 h [20] was 0.02%. The Drug uptake [21] was 166.5 ng/mL/g, the remaining at 10 min, 1 µM [22] was 96.8% and the Drug uptake [23] was 6768.5 ng/mL/g. It also gave a Drug uptake [24] of 1799.2 ng/mL/g, a Drug uptake [25] of 381 ng/mL/g and an Activity (Mus musculus [26]) of 20.5 g. The dose excreted at 72 h [27] was 0.5%, the Drug uptake [28] was 83 ng/mL/g and the Activity (Mus musculus [29]) was 18.5 g. For the same compound, the dose excreted at 4 h [30] was 0.27% and the Drug uptake [31] was 7146.9 ng/mL/g.
